Consider two molecules from patent US6914046B1, “NF-κB activation inhibitors, and their pharmaceutical uses” (Centre National de la Recherche Scientifique, priority 1999, dated 2005).

In assay [1] the test system is human ovarian adenocartcinoma IGROV/ADR. Put plainly: Death of adriamycine resistant IGROV/ADR cells by daunomycin with recombinant HGH. The assay is classed as cell-based. An excerpt: To test the possibility of using the object of the present invention on non-lymphoid tumors, the inventors have used HGH to try to invert the “adriamycine resistant” phenotype of cells isolated from a human ovarian adenocartcinoma IGROV/ADR (Bénard J et coll., 1985, Cancer Res, 45:4970-4979).
FIG. 5: Effect of growth hormone on the apoptosis of the IGROV/ADR line, induced by daunomycin; the percentage of dead cells (IP+) is indicated on the ordinate, and different columns corresponding to the different concentrations of HGH used (0, 5, 50, 500, 1000 ng/ml); the concentrations of daunomycin are indicated on the abscissa in μM.

Assay [2] has as its system human renal carcinoma cells (RCC) HIEG. Briefly: Number of living RCC cells 48 h after daunomycin, flow cytometry. In kind it is cell-based. As for the experimental part:
Erythropoietin (EPO), another molecule than HGH belonging to the same family of cytokines of class I, has been tested on human renal carcinoma cells (RCC) HIEG.
4.10^4 RCC cells have been transfected in a transitory manner with the help of an Effecten^R kit, or with 3 μg of plasmid carrying the gene encoding for EPO (RCC-EPO cells), or with 3 μg of a plasmid coding for the resistance to neomycin (RCC-Neo cells) as the negative control. After 48 hours, the RCC were combined with daunomycin at two different concentrations: 0.3 and 0.6 μM. The number of surviving cells was measured 48 hours later by flow cytometry (FIG. 6).
FIG. 6: Effect of erythropoietin on the apoptosis of the human renal carcinoma line HIEG, induced by daunomycin: for each of the experiments 1 and 2, the number of living cells is indicated on the ordinate, the white columns correspond to the RCC-Neo cells, the black columns correspond to the RCC-EPO cells; the concentrations of daunomycin are indicated on the abscissa in μM.
In general terms: Flow cytometry measures light scatter and fluorescence of single cells or particles in a stream.

Assay [3] concerns NF-κB. Put plainly: NF-κB-driven CAT reporter ELISA after -TNF stimulation. In kind it is cell-based, human. Particulars: U937-HGH versus U937-Neo cells. As for the experimental part: The cells are transfected by electroporation then incubated with -TNF. At the end of culturing, the cells are lysated and the activated CAT is measured by an commercial ELISA (Boehringer-Mannheim), according to the directions of the supplier.
FIG. 3: Effect of growth hormone on the reporter activity CAT; the percentage of variation of CAT activity is indicated on the abscissa; the two left columns show the two experiments carried out on U937-Neo cells, and the two right columns represent the two independent experiments carried out on U937-HGH cells.
For orientation: ELISA stands for enzyme-linked immunosorbent assay.

Another assay concerns human monocytes. Put plainly: Death of human monocytes after engagement of APO1/CD95/Fas. In kind it is cell-based.
For assay [4], the system named is NF-κB. Briefly: Gel delay analysis of nuclear extracts for NF-κB after -TNF stimulation. The assay is classed as cell-based, human. The following applies: U937-HGH cells versus U937 control cells, -TNF or -TNF and cycloheximide. From the text:
On this gel were deposited nuclear extracts from the U937-HGH and U937 cells (the mother line having served for obtaining the U937-HGH lines) subjected to different inductors including -TNF or -TNF and cycloheximide (inhibitor of protein synthesis).
FIG. 2: The effect of growth hormone on the translocation of NF-κB; column 1 corresponds to the control cells U937, column 2 corresponds to the U937 cells treated with -TNF+cycloheximide, column 3 corresponds to the U937 cells treated with -TNF, column 4 corresponds to the U937 cells treated with -TNF+a mutant NF-κB probe, column 5 corresponds to the U937 cells treated with -TNF +a homologous NF-κB probe, column 6 corresponds to the control cells U937-HGH, column 7 corresponds to the U937-HGH cells treated with -TNF+cycloheximide, column 8 corresponds to the U937-HGH cells treated with -TNF; the presence of NF-κB is indicated by an arrow.

Assay [5] relates to U937-HGH and U937-Neo cells. Put plainly: Death mediated by daunomycin in U937-HGH versus control line (IP+ cells). The assay is classed as cell-based, human. From the text:
FIG. 4: Effect of growth hormone on apoptosis induced by daunomycin; the percentage of the dead cells (IP+) is indicated on the ordinate, the white columns corresponding to the cells of the strain U937-Neo, the black columns corresponding to the cells of the strain U937-HGH; the indicated percentages show the increase of mortality of the cells; the concentrations of daunomycin are indicated on the abscissa in μM.

For assay [6], the system named is NF-κB. The following applies: human monocytes, exogenous recombinant HGH; cited from earlier work.
Assay [7] concerns U937-HGH and U937-Neo cells. Put plainly: Propidium iodide incorporation (flow cytometry) after 48 h culture with recombinant -TNF. In kind it is cell-based, human. Particulars: U937-HGH line versus U937 / U937-Neo control. An excerpt:
A selection gene (neomycin resistant, Neo^R) and the gene encoding for human growth hormone (HGH) have been co-transfected in the human promyeloid leukemic line U937. By comparing the transfected line U937-HGH (which produces in a constituent fashion HGH at physiologic doses), either to the parent line U937, or to a line transfected with Neo^R alone, there are observed by different methodological approaches, that the U937-HGH line dies more under the effect of the tumor necrosis factor (-TNF). This cytokine secreted by different types of immune cells has in an anti-tumor activity (Harakana, K et al., 1984, Int J Cancer, 34:263-267) and is capable of promoting the activation of NF-κB (Baeuerle P A, Henkel T, 1994, Ann Rev Immunol, 12:141-179).
The U937-HGH cells and the U937-Neo control cells have been cultured for 48 hours in the presence of increasing concentrations of recombinant -TNF. As a result of this culture, the washed cells have been incubated in the presence of propidium iodide which is incorporated in the DNA of the dead cells. These cells are analyzed by flowing cytometry. […]

“Also recorded” adds a separate entry of the source.

Regarding `COc1cccc2c1C(=O)c1c(O)c3c(c(O)c1C2=O)C[C@@](O)(C(C)=O)C[C@@H]3O[C@H]1C[C@H](N)[C@H](O)[C@H](C)O1` [daunomycin], the “toxic effect of daunomycin on IGROV/ADR cells” value in assay [1] (HGH 0 ng/ml) is on record as “insensitive to the toxic effect”. For the same molecule, the “numbers of living cells” value in assay [2] (Experiment 1, RCC-EPO cells, daunomycin 0.3 μM) is given as 3487; in assay [2] (Experiment 1, RCC-EPO cells, daunomycin 0.6 μM), 8551; in assay [2] (Experiment 1, RCC-Neo cells, daunomycin 0.3 μM), 11382; in assay [2] (Experiment 1, RCC-Neo cells, daunomycin 0.6 μM), 10179; in assay [2] (Experiment 2, RCC-EPO cells, daunomycin 0.3 μM), 2693; in assay [2] (Experiment 2, RCC-EPO cells, daunomycin 0.6 μM), 4739. Besides, the “numbers of living cells” value in assay [2] (Experiment 2, RCC-Neo cells, daunomycin 0.3 μM) amounted to 8891; in assay [2] (Experiment 2, RCC-Neo cells, daunomycin 0.6 μM), 7001.

B1: HGH: human growth hormone (SEQ ID NO 2); produced by transfected U937-HGH line or recombinant exogenous HGH (Saizen, Serono) (protein, listed as Homo sapiens)
chain: MATGSRTSLLLAFGLLCLPWLQEGSAFPTIPLSRLFDNASLRAHRLHQLAFDTYQEFNPQTSLCFSESIPTPSNREETQQKSNLELLRISLLLIQSWLEPVQFLRSVFANSLVYGASDSNVYDLLKDLEEGIQTLMGRLEDGSPRTGQIFKQTYSKFDTNSHNDDALLKNYGLLYCFRKDMDKVETFLRIVQCRSVEGSCGF
Consider B1, for which the “CAT activity, reflected by the presence of NF-κB” value with NF-κB [3] was “decreased in the U937-HGH cells relative to the control cells”. Moreover, in the assay with human monocytes, the “death mediated through the molecule Fas” value is “decreases the death” and the “synthesis of proto-oncogene Bc1-2” value was “increasing the synthesis”. For the same molecule, in assay [1] (lowest dose of HGH used, sensitisation to daunomycin), the “dose of HGH giving maximum effect” value was 5 ng/mL. In addition, the “effect of recombinant HGH on sensitivity of IGROV/ADR cells to daunomycin” value in assay [1] (recombinant HGH (Saizen) added to culture) was “renders these cells sensitive to daunomycin”. Moreover, in the assay on NF-κB [4], the “presence of NF-κB in the nuclei” value is given as “decreased relative to the control cells”. In addition, the “sensitivity to death mediated by daunomycin” value in assay [5] is on record as “more sensitive than the control line”. Also, the “activation of NF-κB after stimulation by LPS” value in the assay with NF-κB [6] is recorded as “inhibits the activation of NF-κB”. For the same molecule, the “effect of HGH on death mediated by -TNF” value in assay [7] was “accelerates the death of these cells; also recorded: increases their susceptibility to the induction of death”.
